Source: patent US9512130B2, “Substituted imidazopyridazines” (BAYER PHARMA AKTIENGESELLSCHAFT, priority 2013, dated 2016)

What was measured:
[1] = tested on: spindle assembly checkpoint (Mps-1) in HeLa cells; test: cells; assay type: cell-based; settings: Homo sapiens; HeLa cells arrested with nocodazole, 4 h with test compound, phospho-histone H3 (Ser10) readout; read-out: SAC
Description: Spindle Assembly Checkpoint Assay
The spindle assembly checkpoint assures the proper segregation of chromosomes during mitosis. Upon entry into mitosis, chromosomes begin to condensate which is accompanied by the phosphorylation of histone H3 on serine 10. Dephosphorylation of histone H3 on serine 10 begins in anaphase and ends at early telophase. Accordingly, phosphorylation of histone H3 on serine 10 can be utilized as a marker of cells in mitosis. Nocodazole is a microtubule destabilizing substance. Thus, nocodazole interferes with microtubule dynamics and mobilises the spindle assembly checkpoint. […] An inhibition of the spindle assembly checkpoint by Mps-1 inhibitors overrides the mitotic blockage in the presence of nocodazole, and the cells complete mitosis prematurely. This alteration is detected by the decrease of cells with phosphorylation of histone H3 on serine 10. This decline is used as a marker to determine the capability of compounds of the present invention to induce a mitotic breakthrough.
Cultivated cells of the human cervical tumour cell line HeLa (ATCC CCL-2) were plated at a density of 2500 cells/well in a 384-well microtiter plate in 20 μl Dulbeco's Medium (w/o phenol red, w/o sodium pyruvate, w 1000 mg/ml glucose, w pyridoxine) supplemented with 1% (v/v) glutamine, 1% (v/v) penicillin, 1% (v/v) streptomycin and 10% (v/v) fetal calf serum. After incubation overnight at 37° C., 10 μl/well nocodazole at a final concentration of 0.1 μg/ml were added to cells. After 24 h incubation, cells were arrested at G2/M phase of the cell cycle progression. […] Images were acquired with a Perkin Elmer OPERA™ High-Content Analysis reader. Images were analyzed with image analysis software MetaXpress™ from Molecular devices utilizing the Cell Cycle application module. […] The raw assay data were further analysed by four parameter logistic regression analysis to determine the IC50 value for each tested compound.

[2] = In vitro metabolic stability in rat hepatocytes; assay type: in vitro ADME; settings: maximal oral bioavailability calculated from half-life in Han Wistar rat hepatocytes, 1 μM test compound
Description: Investigation of In Vitro Metabolic Stability in Rat Hepatocytes (Including Calculation of Hepatic In Vivo Blood Clearance (CL)) Hepatocytes from Han Wistar rats were isolated via a 2-step perfusion method. After perfusion, the liver was carefully removed from the rat: the liver capsule was opened and the hepatocytes were gently shaken out into a Petri dish with ice-cold WME. The resulting cell suspension was filtered through sterile gaze in 50 ml falcon tubes and centrifuged at 50×g for 3 min at room temperature. The cell pellet was resuspended in 30 ml WME and centrifuged through a Percoll® gradient for 2 times at 100×g. The hepatocytes were washed again with Williams' medium E (WME) and resuspended in medium containing 5% FCS. Cell viability was determined by trypan blue exclusion. For the metabolic stability assay liver cells were distributed in WME containing 5% FCS to glass vials at a density of 1.0×10^6 vital cells/mL. […] During incubation, the hepatocyte suspensions were continuously shaken and aliquots were taken at 2, 8, 16, 30, 45 and 90 min, to which equal volumes of cold methanol were immediately added. Samples were frozen at −20° C. over night, after subsequently centrifuged for 15 minutes at 3000 rpm and the supernatant was analyzed with an Agilent 1200 HPLC-system with LCMS/MS detection. The half-life of a test compound was determined from the concentration-time plot. From the half-life the intrinsic clearances were calculated. Together with the additional parameters liver blood flow, amount of liver cells in vivo and in vitro. The hepatic in vivo blood clearance (CL) and the maximal oral bioavailability (Fmax) was calculated. The following parameter values were used: Liver blood flow—4.2 L/h/kg rat; specific liver weight—32 g/kg rat body weight; liver cells in vivo—1.1×10^8 cells/g liver, liver cells in vitro—0.5×10^6/ml.

human CYP3A4 [3] = biological target: T1, human CYP3A4 (Homo sapiens (Human), UniProt P08684); test: Determination of inhibitory potential on human CYP3A4; assay type: in vitro ADME; settings: human liver microsomes, midazolam as probe substrate
Description: Determination of Inhibitory Potential on Human CYP3A4
The potential of the test compound to act as a competitive inhibitor of CYP3A4 was evaluated in in vitro assays, using human liver microsomes and the reference substrate midazolam. The test compound was solved in acetonitrile. Human liver microsomal preparation (pool of HLM) was applied for the assay. A stock solution of the test compound was added to phosphate buffer containing EDTA, NADP, glucose 6-phosphate, and glucose 6-phosphate dehydrogenase. This mixture was sequentially diluted on a Genesis Workstation (Tecan, Crailsheim, FRG). After pre-warming, reaction was initiated by addition of a mixture of probe substrate (midazolam). […] The reference samples (substrate, but no inhibitor) were incubated in parallel in sextuple and contained the same amount of solvent as the test incubations. Reactions were stopped by addition of 100 μL acetonitrile containing the internal standard. Precipitated proteins were removed by centrifugation of the well plate, supernatants were analyzed by LC-MS/MS.
The CYP3A4-mediated metabolic activity in the presence of the test compounds was expressed as percentages of the corresponding reference value. A sigmoid-shaped curve was fitted to the data to calculate the enzyme inhibition parameter IC50 using a nonlinear least-squares regression analysis of the plot of percent control activity versus concentration of the test inhibitor.

human CYP3A4 [4] = biological target: T1, human CYP3A4; test: Determination of mechanism-based inhibition of human CYP3A4; assay type: in vitro ADME; settings: irreversible CYP3A4 inactivation; inactivator molecules metabolized per CYP3A4 molecule inactivated; testosterone substrate
Description: Determination of Mechanism-Based Inhibition of Human CYP3A4
The test compound was incubated at 37° C. in a concentration-NADPH-, and time-dependent setting. Therefore, the test compound was incubated at 4 different concentrations (e.g.: 1, 2, 5, 10 μM) in the presence of NADPH ([…]) and regenerating system in phosphate-buffered saline ([…], pH 7.4) The highest concentration of test compound was incubated without NADPH and therefore served as the NADPH-deficient control. In addition, acetonitrile as a vehicle control (negative control) and mibefradil as positive control for irreversible CYP3A4 inactivation were also included using identical assay conditions.
Each mixture was incubated with the enzyme (preincubation) for up to 50 minutes.
Afterwards, the reaction in the main incubation was stopped by the addition of acetonitrile (containing an internal standard), the protein was allowed to precipitate by placing the mixture into an ice bath. Subsequently, the mixture was centrifuged to pelletize the protein and the supernatants were analyzed by HPLC-MS for the isoform specific metabolite e.g. […] and the remaining amount of the test compound.
In parallel the turnover of the substrate was plotted against the preincubation time.

HeLa cells = test: Proliferation Assay with HeLa cells; assay type: cell-based; settings: Homo sapiens, 96 h, 4 days incubation, crystal violet staining
Description: After 24 hours, the cells of one plate (zero-point plate) were stained with crystal violet (see below), while the medium of the other plates was replaced by fresh culture medium (200 μl), to which the test substances were added in various concentrations (0 μM, as well as in the range of 0.01-30 μM; the final concentration of the solvent dimethyl sulfoxide was 0.5%). The cells were incubated for 4 days in the presence of test substances. […] After three washing cycles of the fixed cells with water, the plates were dried at room temperature. The cells were stained by adding 100 μl/measuring point of a 0.1% crystal violet solution (pH 3.0). After three washing cycles of the stained cells with water, the plates were dried at room temperature. The dye was dissolved by adding 100 μl/measuring point of a 10% acetic acid solution. The extinction was determined by photometry at a wavelength of 595 nm. The change of cell number, in percent, was calculated by normalization of the measured values to the extinction values of the zero-point plate (=0%) and the extinction of the untreated (0 μm) cells (=100%). The IC50 values were determined by means of a 4 parameter fit using the company's own software.

T1 sequence (P08684 whole entry): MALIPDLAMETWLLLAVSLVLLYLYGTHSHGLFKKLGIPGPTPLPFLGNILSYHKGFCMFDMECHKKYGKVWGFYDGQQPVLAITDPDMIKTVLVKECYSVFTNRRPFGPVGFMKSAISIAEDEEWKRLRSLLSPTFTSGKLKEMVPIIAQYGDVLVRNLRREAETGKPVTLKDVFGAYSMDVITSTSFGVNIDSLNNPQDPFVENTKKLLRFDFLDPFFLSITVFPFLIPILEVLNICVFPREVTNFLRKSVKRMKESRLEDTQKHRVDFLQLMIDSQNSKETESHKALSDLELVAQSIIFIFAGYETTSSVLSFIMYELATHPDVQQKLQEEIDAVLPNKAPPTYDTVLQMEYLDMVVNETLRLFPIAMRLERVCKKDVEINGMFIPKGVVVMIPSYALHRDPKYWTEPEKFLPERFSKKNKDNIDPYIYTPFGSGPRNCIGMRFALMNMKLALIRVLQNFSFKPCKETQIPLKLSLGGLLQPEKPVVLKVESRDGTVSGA

COc1ccc(Oc2cc(NCC3CCOCC3)c3ncc(-c4ccc(C(=O)NC5CC5)c(C)c4)n3n2)c(F)c1F [Example 3, N-cyclopropyl-4-{6-(2,3-difluoro-4-methoxyphenoxy)-8-[(tetrahydro-2H-pyran-4-ylmethyl)amino]imidazo[1,2-b]pyridazin-3-yl}-2-methylbenzamide]
IC50 [1]: 0.08 nM | Fmax rat hep [2]: 39% | IC50 (human CYP3A4 [3]): > 10000 nM | CYP3A4 partition ratio (human CYP3A4 [4]): 33 | IC50 (HeLa cells): 18.1 nM

Cc1cc(-c2cnc3c(NCCC(F)(F)F)cc(Oc4cccc(F)c4)nn23)ccc1C(=O)NC1CC1 [Ref., N-cyclopropyl-4-{6-(3-fluorophenoxy)-8-[(3,3,3-trifluoropropyl)amino]imidazo[1,2-b]pyridazin-3-yl}-2-methylbenzamide, reference compound]
IC50 [1]: 0.52 nM | Fmax rat hep [2]: 38% | IC50 (human CYP3A4 [3]): > 10000 nM | CYP3A4 partition ratio (human CYP3A4 [4]): 3 | IC50 (HeLa cells): 23 nM

COc1ccc(Oc2cc(NCC3COC3)c3ncc(-c4ccc(C(=O)NC5CC5)c(C)c4)n3n2)cc1F [Example 1, N-cyclopropyl-4-{6-(3-fluoro-4-methoxyphenoxy)-8-[(oxetan-3-ylmethyl)amino]imidazo[1,2-b]pyridazin-3-yl}-2-methylbenzamide]
IC50 [1]: 0.97 nM | Fmax rat hep [2]: 44% | IC50 (human CYP3A4 [3]): > 5000 nM | CYP3A4 partition ratio (human CYP3A4 [4]): 105 | IC50 (HeLa cells): 2.9 nM

COc1ccc(Oc2cc(NCCC(F)(F)F)c3ncc(-c4ccc(C(=O)NC5CC5)c(C)c4)n3n2)c(F)c1F [Example 2, N-cyclopropyl-4-{6-(2,3-difluoro-4-methoxyphenoxy)-8-[(3,3,3-trifluoropropyl)amino]imidazo[1,2-b]pyridazin-3-yl}-2-methylbenzamide]
Fmax rat hep [2]: 72% | IC50 (HeLa cells): 7.8 nM
